The values below come from patent publication US11965100B2, “Aggregation-induced emission luminogens useful for cancer cell discrimination and monitoring” (The Hong Kong University of Science and Technology, priority 2020, dated 2024).

One series has as its system A549 and HeLa cells. Kind of series: Mitochondrion-nucleolus migration on H2O2 treatment. Type of series: cell-based. Conditions: pre-stained 2 μM 30 min, 10 mM H2O2 10 min. The procedure: FIG. 17 Live A549 and HeLa cells were pre-stained with 2 μM IVP-02 for 30 min, and treated with 10 mM H2O2 for 10 min. λex=488 nm, λem=500-650 nm. Scale bar=20 μm.
Monitoring cell viability is a highly valuable task for the fundamental researches in biology, pathology, and medicine. Then we investigated whether IVP-02 could monitor cell viability. Δψm is a very important indicator to characterize cell viability. With the loss of cell viability, Δψm would decrease, while with the recovery of cell viability, Δψm would also recover to the normal level. […] Carbonyl cyanide m-chlorophenyl hydrazone (CCCP) is a type of protonophore and can cause rapid acidification of mitochondria by collapsing Δψm. Cancer cells A549 were pre-stained with IVP-02 for 30 min. In FIG. 15A, in the beginning, IVP-02 stained mitochondria clearly. […] Hydrogen peroxide (H2O2) can inhibit the oxidation respiratory chain that would cause the loss of cell viability. Then live A549 and HeLa cells were pre-stained with IVP-02, and treated with 10 mM H2O2.

Series [1] is described as follows: Absorption and one-photon excited fluorescence spectra, AIE activity. Type of series: physicochemical. The text has this: Similar results were reported by others. […] With the increase of glycerol volume content accompanied by viscosity increasing, the FL intensity increased gradually. […] These phenomena occur because high viscosity and low temperature could hamper intramolecular motion, leading to the closure of the nonradiative decay channel and thus enhanced FL emission. Furthermore, we added some RNA in PBS solution of IVP-02. […] Based on the calculation results in FIG. 20, IVP-02 located in the minor grooves of RNA, where the intramolecular motion of IVP-02 was also hampered.

A short description of series [2]: Two-photon absorption cross section in DMSO, fluorescein as standard. In kind it is physicochemical. The text has this: In addition, IVP-02 emits redder fluorescence in solid state than that in solution. To testify the mechanism of the red shift in solid state of IVP-02, its crystal has been analyzed in FIGS. 2G and 2H. The molecules of IVP-02 are anti-parallelly stacked and form multimers in the crystalline state. The short intermolecular stacking distances of the multimers are 3.636 Å, 3.455 Å, 3.394 Å, 3.375 Å, 3.466 Å, and 3.465 Å, indicating strong intermolecular interactions inside the multimers. So the red-shift emission in solid state should be attributed to the intermolecular π-π interactions induced by the short contact between the molecules. […] The TPEF spectra of IVP-02 excited at different pulse wavelengths (780-900 nm) in DMSO were measured in FIG. 2F. The highest […] was 287 GM excited at 800 nm. Such high δ value is beneficial for two-photon imaging in live cells and deep tissues.

Series [3] has as its system cancer cells (A549 and HeLa) co-cultured with normal cells (COS7 and HLF). Kind of series: CLSM imaging of cancer cells co-cultured with normal cells. Type of series: cell-based. Conditions: 30 min. The procedure:
FIG. 5 CLSM images of live cancer cells (A549 and HeLa) co-cultured with normal cells (COS7 and HLF) (A), and the images of A549 and HLF cells seeded on different cover glasses (Scale bar=20 μm) (B) stained with 2 μM IVP-02 for 30 min (Scale bar=50 μm), respectively. λex=488 nm, λem=500-650 nm.
FIG. 10 CLSM images of live cancer cells (A549) co-cultured with normal cells (COS7) (A), and the images of A549 and HLF cells seeded on different cover glasses Scale bar=20 μm (B) stained with 2 μM IVP-02, 04, 06, 22, 42, and 62 for 30 min Scale bar=50 μm, respectively. (The first column in B is the same as FIG. 3B) λex=488 nm, λem=500-650 nm.
FIG. 11 CLSM images of live cancer cells (HeLa) co-cultured with normal cells (COS7), stained with 2 μM IVP-02, 04, 06, 22, 42, and 62 for 30 min, respectively. λex=488 nm, λem=500-650 nm. Scale bar=20 μm.
FIG. 12 CLSM images of live cancer cells (A549) co-cultured with normal cells (HLF), stained with 2 μM IVP-02, 04, 06, 22, 42, and 62 for 30 min, respectively. λex=488 nm, λem=500-650 nm. Scale bar=20 μm.
The bioimaging properties of IVP-02 in live cells were investigated by confocal laser scanning microscopy (CLSM). Cancer cells (A549 and HeLa) and normal cells (COS7 and HLF) were stained with IVP-02, respectively. […] So IVP-02 holds the high potential to differentiate cancer and normal cells. To verify this speculation, cancer and normal cells were co-cultured and stained with IVP-02. […] To precisely confirm the selectivity of IVP-02 to cancer cells, cancer cells A549 and normal cells HLF (A549 and HLF are both human lung cells) were seeded on different cover glasses, respectively. Then the two cover glasses were put in the same dish and stained with IVP-02 at the same time.
Cancer cells A549 co-cultured with normal cells COS7 were stained with these molecules, respectively. […] Then HeLa cells co-cultured with COS7 cells (FIG. 11), and A549 cells co-cultured with HLF cells (FIG. 12) were also stained with these molecules, the results were similar with that in A549 cells co-cultured with COS7 cells. In addition to co-culturing, A549 cells and HLF cells were also seeded on different cover glasses and stained with these molecules. […] Based on the imaging results above, it can be concluded that the selectivity of these IVP molecules to cancer cells is also based on the length of alkyl chain at pyridinium salt side. Lengthening the alkyl chain at the pyridinium salt side will eliminate the selectivity to cancer cells.

Series [4] is described as follows: Quantum yield in the solid state. In kind it is physicochemical. The text has this: IVPI-2 is able to stain mitochondria in healthy live cancer cells. However, when Δψm decreases, IVPI-2 migrates into nucleolus. Since IVPI-2 is target-changeable according to the change of mitochondrial physiology, the chemical structure of IVPI-2 was modified in order to enhance the mitochondria to nucleolus migration. Iodide ion is a well-known effective fluorescent quencher due to its heavy-atom effect. The quantum yield of IVP-02 in the solid state is 4.3%, which is about 3 times than that of IVPI-02 (1.3%). An Exemplary synthetic route to certain embodiments of the compounds described herein is depicted in Scheme 1.

On to `CC[n+]1ccc(/C=C/c2c[nH]c3ccccc23)cc1` [IVP-02], for which the “fluorescence after adding H2O2” value in the series on A549 and HeLa cells is listed as “strong fluorescence was observed in nucleolus”. Besides, in series [1] (viscosity, temperature, RNA, solid state), the AIE activity result is reported as “possesses AIE activity”. The “fluorescence in the solid state” value in series [1] (λex 440 nm) was “around 575 nm”. Besides, the “Two-photon absorption cross section (δ)” value is 106 GM in series [2] (λex 780 nm); 287 GM in series [2] (λex 800 nm); 173 GM in series [2] (λex 820 nm); 194 GM in series [2] (λex 840 nm); 271 GM in series [2] (λex 860 nm); 227 GM in series [2] (λex 880 nm). In addition, the “Two-photon absorption cross section (δ)” value in series [2] (λex 900 nm) is given as 78 GM. Besides, the “staining of co-cultured cancer and normal cells” value in series [3] (A549 and HeLa co-cultured with COS7 and HLF, 2 μM) was “only cancer cells (A549 and HeLa) were highly illuminated”; in series [3] (A549 co-cultured with COS7, 2 μM) it was “only stain A549 cells”. The compound further gave a quantum yield in series [4] of 4.3%. The “quantum yield relative to IVPI-02” value in series [4] is listed as “about 3 times”.
